Source: article PMC9017425, “Integrative Analysis of Pharmacokinetic and Metabolomic Profiles for Predicting Metabolic Phenotype and Drug Exposure Caused by Sotorasib in Rats” (Frontiers in Oncology, 2022)
Where two headings read alike, the source gives them in different places.

Tests used:
[1] = Working solution stability of sotorasib; type: physicochemical; details: −80°C for 10 days, n = 6
Protocol: Stock solutions of sotorasib and IS were equipped using ACN at a concentration of 1.0 mg/ml and further diluted for the calibration standards and quality control (QC) samples at a final concentration of 500 µg/ml separately. The working IS solution was prepared in MeOH at a concentration of 10 ng/ml. The working calibration solutions of sotorasib were completed in dilution (MeOH/water = 1:1, v/v) to obtain concentrations of 5, 10, 20, 50, 100, 100, 200, 500, 1,000, 2,000, and 5,000 ng/ml. Similarly, the QC working solutions of analytes were prepared to obtain final concentrations of 10, 200, and 4,000 ng/ml. All solutions were stored in a −80°C freezer pending analysis. For the PK study, calibrations were made in blank rat plasma to achieve a nominal concentration range of 0.5–500 ng/ml. QC plasma samples were prepared in blank rat plasma at nominal concentrations of 1, 20, and 400 ng/ml. Stability was investigated at LQC and HQC concentrations in six replicates. The stability conditions incorporated the short-term (at ambient temperature for 24 h), freeze–thaw (−80°C to ambient temperature, three sequential cycles), post-preparation (autosampler, 24 h), and long-term (−80°C for 3 months) status. If the %Bias is within ±15%, the stability is considered acceptable.

[2] = Pharmacokinetic study of sotorasib in rats after oral administration (HPLC-MS/MS of plasma); type: in vivo; details: male, Sprague-Dawley, rat
Protocol: For the PK study, a chromatographic system of Shimadzu LC-20ADXR (Kyoto, Japan) coupled with a mass spectrometer (QTRAP 5500; SCIEX, Concord, Canada) was utilized for chromatographic separation and mass quantitation ([19]). The column temperature was set to 40°C on a reversed-phase C18 column (50 mm × 2.1 mm i.d., 3.5 μm) (XBrige; Waters, Milford, MA, USA), and the total run time was 3.0 min. Both mobile phases contained 0.1% formic acid. Gradient elution was adopted to comply with the compounds’ baseline separation (0–0.1 min, 90% water phase; 0.1–1.2 min, 10% water phase; 1.2–2.2 min, 0% water phase; and 2.2–3.0 min, 90% water phase). The flow rate was fixed at 0.4 ml/min with an injection volume of 2 μl. A time-efficient washing procedure composed of MeOH/water/ACN/IPA (1:1:1:1, v/v/v/v) was applied during the entire analyses. Multiple reaction monitoring (MRM) was utilized with the following parameters: ion spray voltage, 5,500 V; temperature, 550°C; curtain gas, 20.0 psi; ion source, gas 1 at 55.0 psi; and turbo ion source, gas 2 at 55.0 psi. A proton adduct [M+H]^+ ion and double MRM transitions were used, which were set at m/z 561.4→317.1 (qualifier) and m/z 561.4→134.1 (quantifier) for sotorasib and at 237.0→194.1 for the IS.
During the PK study, all unknown plasma samples were mixed for 1 min and 20 μl aliquot of plasma was pipetted into an Eppendorf centrifuge tube. Protein precipitation was adopted for the preparation of the sample. After the addition of 10 μl IS working solution (10 ng/ml) and 80 μl MeOH, proteins were extracted by vortex mixing for approximately 30 s. The supernatant was centrifuged at 13,500 rpm for 10 min at 4°C. The extraction solutions were then pipetted into autosampler vials.
Six Sprague–Dawley rats (180–220 g, 8-week-old males; animal license: SCXK-2019-0008) were purchased from Beijing Vital River Laboratory Animal Technologies Co., Ltd. (Beijing, China). All rats were fed in a specific pathogen-free (SPF) conditioned room to allow acclimatization for 1 week. Animal experiments were implemented in line with the Guidelines for the Care and Use of Laboratory Animals, and animal ethics was approved by Beijing Chao-Yang Hospital, Capital Medical University. Rats were orally administered sotorasib dissolved with 1% Tween-80 and 2% hydroxypropyl methylcellulose (HPMC) in water at a dose of 10 mg/kg. Biological samples (approximately 500 μl) were collected from ophthalmic veins into heparin-anticoagulated collection tubes before administration and at 15 min, 30 min, and 1, 1.5, 2, 2.5, 3, 4, and 8 h after administration. Plasma samples were acquired by direct centrifugation at 3,500 rpm for 10 min at 4°C.
Raw data files were processed and checked using Analyst 1.6.3 and MultiQuant 3.0.1 (SCIEX, Concord, Canada). The concentrations of the analytes were calculated according to the calibration curve. Pharmacokinetic parameters, such as C max and the area under the curve (AUC), were calculated using Phoenix WinNonLin software (Pharsight 8.3, Mountain View, CA, USA). Pearson’s correlation was employed to investigate the correlation between the metabolomic data and PK parameters using IBM SPSS 26.0 (Armonk, NY, USA). SIMCA-P software (v14.1; Umetric, Umeå, Sweden) was employed to build mathematical models, including unsupervised principal component analysis (PCA), supervised orthogonal projection to latent structures discriminant analysis (OPLS-DA), and partial least squares (PLS). Compounds with values of variable importance in the projections (VIP) >1 and statistical significance of p < 0.05 were selected for further identification and metabolic pathway analysis. One hundred or 200 random permutation tests were employed to examine overfitting and random effects, which can assess the predictive ability of the model. Meanwhile, significant variables with p < 0.05 and fold change (FC) >2 or <0.5 were considered potential biomarkers. […]

[3] = Stability of sotorasib in rat plasma QC samples under different storage conditions; type: in vitro ADME; details: for Post-preparation stability, measured concentration Mean ± SD / Room temperature stability, measured concentration Mean ± SD / Freeze–thaw stability, measured concentration Mean ± SD / Long-term stability, measured concentration Mean ± SD: n = 6; for Room temperature stability, measured concentration Mean ± SD: rat plasma, ambient temperature; for Freeze–thaw stability, measured concentration Mean ± SD: three cycles −80°C to ambient temperature; for Long-term stability, measured concentration Mean ± SD: −80°C for 3 months
Excerpt: Stability was investigated at LQC and HQC concentrations in six replicates. […] If the %Bias is within ±15%, the stability is considered acceptable.

[4] = design: method as in PMID 33283304; details: oral administration, 50 mg/kg; cited from earlier work
[5] = design: method as in PMID 33957355; details: mice, single oral 20 mg/kg; cited from earlier work
[6] = rats, 10 mg/kg, n = 6, mean ± SD

SMILES: C=CC(=O)N1CCN(c2nc(=O)n(-c3c(C)ccnc3C(C)C)c3nc(-c4c(O)cccc4F)c(F)cc23)[C@@H](C)C1 [Sotorasib]
- Working solution stability, measured concentration Mean ± SD ([1]; nominal 1 ng/ml): 1.034 ± 0.08 ng/mL
- Working solution stability, measured concentration Mean ± SD ([1]; nominal 400 ng/ml): 409.37 ± 37.98 ng/mL
- concentration at 15 min ([2]; 10-mg/kg dose, 15 min after administration, single sample, read-out: plasma concentration of an unknown sample): 298 ng/mL
- AUC(0-inf) [2, 6]: 463 ± 167 ng·h/mL
- AUC(0-t) [2, 6]: 457 ± 165 ng·h/mL
- Cmax [2, 6]: 227 ± 98.8 ng/mL
- half-life [2, 6]: 74.4 ± 13.2 min
- CL/F ([2]; rats, 10 mg/kg, n = 6, mean ± SD, read-out: CL_F (apparent clearance) (converted)): 400 mL/min/kg
- MRT ([2]; rats, 10 mg/kg, n = 6, mean ± SD, read-out: MRT (mean residence time)): 113 ± 10.8 min
- Vd/F ([2]; rats, 10 mg/kg, n = 6, mean ± SD, read-out: Vz_F (apparent volume of distribution)): 43.3 ± 17.9 L/kg
- Tmax ([2]; rats, 10 mg/kg, n = 6, median (range)): 30 min
- stability under several storage conditions in plasma or in solution ([3]; ambient temperature 6 h, three freeze–thaw cycles, autosampler 24 h, working solution −80°C 10 days, −80°C 3 months): stable
- Post-preparation stability, measured concentration Mean ± SD ([3]; nominal 1 ng/ml, autosampler 24 h): 1.07 ± 0.06 ng/mL
- Room temperature stability, measured concentration Mean ± SD ([3]; nominal 1 ng/ml): 1.03 ± 0.10 ng/mL
- Freeze–thaw stability, measured concentration Mean ± SD ([3]; nominal 1 ng/ml): 1.06 ± 0.07 ng/mL
- Long-term stability, measured concentration Mean ± SD ([3]; nominal 1 ng/ml): 1.01 ± 0.07 ng/mL
- Post-preparation stability, measured concentration Mean ± SD ([3]; nominal 400 ng/ml, autosampler 24 h): 441.20 ± 10.76 ng/mL
- Room temperature stability, measured concentration Mean ± SD ([3]; nominal 400 ng/ml): 434.00 ± 8.07 ng/mL
- Freeze–thaw stability, measured concentration Mean ± SD ([3]; nominal 400 ng/ml): 448.60 ± 6.19 ng/mL
- Long-term stability, measured concentration Mean ± SD ([3]; nominal 400 ng/ml): 399.67 ± 20.10 ng/mL
- AUC0–∞ [4]: 170 ng·h/mL
- C max [4]: 123 ng/mL
- T max [4]: 15 min
- t 1/2 [4]: 114 min
- AUC0–4 [5]: 3,766 ± 896 ng·h/ml
- C max [5]: 4,231 ± 1,208 ng/ml
- T max [5]: 12.6 ± 3.6 min
- t 1/2 [5]: 36 ± 3.6 min
- time in which C max was achieved [5]: < 15 min
